Assay results reported in US20190388320A1, “METHOD OF STRENGTHENING HAIR” (Conopco, Inc. d/b/a UNILEVER, priority 2017, published 2019).

Test: Denaturation temperature Td of treated hair fibres by DSC
Details: soaked for 30 minutes in 2% aqueous solution; for Average Td (n = 3): denaturation temperature by DSC, hair switches washed, left to dry; for Change in Td of the treated fibres: in words, relative to Control (water)
Description: Virgin dark brown European hair switches of length 25 cm and weight 2 gms, were treated as follows: • Control: After initial washing, soaked for 30 minutes in water • Example 1: After initial washing, soaked for 30 minutes in a 2% aqueous solution of N-α-acetyl-L-lysine • Example A: After initial washing, soaked for 30 minutes in a 2% aqueous solution of L-lysine • Example B: After initial washing, soaked for 30 minutes in a 2% aqueous solution of N-α-acetyl-L-arginine
At the end of the soaking period the switches were left to dry and clippings from a few fibres were used to measure denaturation temperature Td using DSC.

SMILES	Average Td (n = 3)	Change in Td of the treated fibres
CC(=O)N[C@@H](CCCNC(=N)N)C(=O)O [Example B, N-α-acetyl-L-arginine]	148.2	decrease Td
NCCCC[C@H](N)C(=O)O [Example A, L-lysine]	148.1	decrease Td
CC(=O)N[C@@H](CCCCN)C(=O)O [Example 1, N-α-acetyl-L-lysine]	153.4	substantial and significant increase in Td
